The values that follow come from EPA's ToxValDB 9.5 (doi:10.2903/j.efsa.2009.203r).

One data set deals with Colinus virginianus. The note with it: acute, oral, mortality.
In another data set the test system is Rattus norvegicus. Conditions: for LD50: acute, mortality.
The next data set deals with Canidae. The note with it: oral, Dog Other, histopathology: nonneoplastic.
In another data set the test system is Anas platyrhynchos. Conditions: short-term; oral; feed; mortality.
The next data set deals with Oncorhynchus mykiss. Conditions: acute; duration: 96 hours; mortality.

Converted amounts (≈) assume the structure as drawn.

In the case of `CNC(=S)[S-].[Na+]` [Metam-sodium], the LC50 in the data set with Colinus virginianus (diet) is above 448 mg/kg-day; in the data set on Anas platyrhynchos, above 324 mg/kg-day. For the same compound, the LD50 in the data set with Colinus virginianus was 211 mg/kg-day; in the data set with Rattus norvegicus (oral), 896 mg/kg-day. For the same compound, the NOAEL in the data set on Rattus norvegicus (chronic, duration: 2 years, histopathology: nonneoplastic) was 1.5 mg/kg-day; in the data set with Rattus norvegicus (developmental, oral, gavage, development), 5 mg/kg-day; in the data set with Canidae (chronic, duration: 1 years, capsule) it was 0.1 mg/kg-day.

`CN=C=S` [Methyl isothiocyanate] came in with an LC50 with Oncorhynchus mykiss of 0.0531 µg/mL (≈ 0.726 µM). For the same compound, the LD50 in the data set with Rattus norvegicus (oral) was 147 mg/kg-day. In addition, the no observed adverse effect level (NOAEL) is 0.44 mg/kg-day in the data set with Rattus norvegicus (chronic, duration: 104 weeks, oral, drinking water, histopathology: nonneoplastic); 3 mg/kg-day with Rattus norvegicus (reproduction developmental); 0.4 mg/kg-day in the data set with Canidae (subchronic, duration: 90 days, gavage).
